# What was measured:
# Clostridium difficile [1] = assay: Example 3: Colombia base media with a chromogenic beta-glucosidase substrate and 300 mg/l ammoniacal iron citrate; format: cell-based; design: key to diffusion of the coloration: *: diffusion of trie coloration; details: Clostridium difficile strains, 48 h; for Co = coloration / Gr = growth: Colombia base, 300 mg/l ammoniacal iron citrate
# Clostridium difficile [2] = assay: Example 2: egg yolk base media each containing a chromogenic beta-glucosidase substrate, growth and coloration of strains; format: cell-based; details: for Co = coloration / Gr = growth: Clostridium difficile strains, 48 h, egg yolk base; for sensitivity with respect to Clostridium difficile: Example 2, 48 h
# Other Clostridium = format: cell-based, Clostridium spp
# [3] = tested on: C. difficile strains 042, 308, 169, 187; assay: Example 4: five CHE-beta-glucoside media with varying esculin and glucose, colony diameter and coloration strength; format: cell-based, Clostridium difficile; details: Example 4, according to medium 2
# Experimental: Five media, each containing 48.10 g/l of Columbia base, 2.5 g/l of sodium taurocholate, 200 mg/l of ammoniacal iron citrate, 100 mg/l of CHE-beta-glucoside, and also an inhibitor system normally used in the media for Clostridium difficile, based on D-cycloserine, and varying concentrations of esculin and glucose (see following table):
# (§1) The inoculation is carried out from precultures prepared for 48 h at 37° C. under anaerobic conditions.
# (§2) A suspension in physiological saline at 0.5 McF is prepared and then the strains are inoculated using a 10 μl calibrated loop.
# The readings are carried out after incubation for 24 hours at 37° C.
# For Growth: • The values indicated correspond to the diameter of the colonies.
# For Coloration Strength: • 1 corresponds to the presence of a clear coloration of weak strength, • 1.5 corresponds to the presence of a coloration that is intermediate between colorations 1 and 2, • 2 corresponds to the presence of a clear coloration of medium strength, • 2.5 corresponds to the presence of a coloration that is intermediate between colorations 2 and 3, • 3 corresponds to the presence of a strong coloration.
# [4] = tested on: strains other than Clostridium difficile; assay: Example 5: selectivity of the medium, growth of strains other than Clostridium difficile; format: cell-based
# Experimental: (§3) 107 strains were tested on two prototype media for C. difficile, the compositions of which are the following (per liter):
# as §1, §2
# (§4) The readings are carried out after incubation for 24 and 48 hours at 37° C.
# Clostridium difficile [5] = assay: Example 5: two prototype media for C. difficile, % of strains producing a coloration; format: cell-based
# Experimental: as §3, §1, §2, §4
# [6] = substrate 300 mg/l +500 mg/l of ammoniacal iron citrate
# [7] = substrate 300 mg/l +50 mg of ammoniacal iron citrate
compound,measurement,setting,value
"O=C1c2ccccc2C(=O)c2c1ccc(O[C@@H]1O[C@H](CO)[C@@H](O)[C@H](O)[C@H]1O)c2O [Alizarin-β-glucoside, 1,2-dihydroxyanthraquinone-β-glucoside]",Co = coloration,Clostridium difficile [1]; substrate 50 mg/l,8/10
same,Gr = growth,Clostridium difficile [1]; substrate 50 mg/l,10/10
same,Co = coloration,Clostridium difficile [2]; substrate 50 mg/l,18/22
same,Gr = growth,Clostridium difficile [2]; substrate 50 mg/l,22/28
same,sensitivity with respect to Clostridium difficile,Clostridium difficile [2],good sensitivity
same,Co = coloration,Other Clostridium,2/16
same,Gr = growth,Other Clostridium,16/17
5-bromo-6-chloro-3-indoxyl-β-glucoside [Magenta-β-glucoside],Co = coloration,Clostridium difficile [2]; substrate 80 mg/l,16/18
same,Gr = growth,Clostridium difficile [2]; substrate 80 mg/l,18/28
same,sensitivity with respect to Clostridium difficile,Clostridium difficile [2],good sensitivity
same,Co = coloration,Other Clostridium,6/17
same,Gr = growth,Other Clostridium,17/17
"O=c1ccc2cc(O[C@@H]3O[C@H](CO)[C@@H](O)[C@H](O)[C@H]3O)c(O)cc2o1 [esculin, esculetin-β-glucoside]",effect on the strength of the coloration,[3],positive effect
"O=c1oc2cc(O)c(O[C@@H]3O[C@H](CO)[C@@H](O)[C@H](O)[C@H]3O)cc2c2c1CCCC2 [CHE-β-glucoside, 3,4-cyclohexenoesculetin-β-glucoside]",Co = coloration,Clostridium difficile [2]; [6],20/21
same,Gr = growth,Clostridium difficile [2]; [6],21/28
same,sensitivity with respect to Clostridium difficile,Clostridium difficile [2],good sensitivity
same,specificity with respect to Clostridium difficile,[4],good specificity
same,Co = coloration,Other Clostridium,6/17
same,Gr = growth,Other Clostridium,17/17
same,sensitivity with respect to Clostridium difficile,"Clostridium difficile [5]; Example 5, from 24 h onward",good sensitivity
same,strains of Clostridium difficile revealed,"Clostridium difficile [5]; from 24 h onward, with a minimum of false positives",~90%
5-bromo-3-indoxyl-β-glucoside [Blue-β-glucoside],diffusion of the coloration,Clostridium difficile [1]; Blue substrate 300 mg/l,*
same,Co = coloration,Clostridium difficile [1]; Blue substrate 300 mg/l,10/10
same,Gr = growth,Clostridium difficile [1]; Blue substrate 300 mg/l,10/10
dihydroxyflavone-β-glucoside [DHF-β-glucoside],Co = coloration,Clostridium difficile [1]; substrate 300 mg/l,10/10
same,Gr = growth,Clostridium difficile [1]; substrate 300 mg/l,10/10
same,Co = coloration,Clostridium difficile [2]; [7],20/28
same,Gr = growth,Clostridium difficile [2]; [7],28/28
same,Co = coloration,Other Clostridium,3/12
same,Gr = growth,Other Clostridium,12/14
"OC[C@H]1O[C@@H](Oc2cccc3cccnc23)[C@H](O)[C@@H](O)[C@@H]1O [8-Hydroxyquinoline-β-glucoside, 8-hydroxyquinoline-β-glucoside]",Co = coloration,Clostridium difficile [1]; substrate 150 mg/l,5/10
same,Gr = growth,Clostridium difficile [1]; substrate 150 mg/l,10/10
